Tests used:
Assay type in all cases: in vivo
Female CFLP mice = assay: Hypoglycaemic activity: blood glucose curve after subcutaneous glucose load in fasted mice; details: 2 hour period after glucose 1 g/kg s.c., compared with control mice given water
Experimental: Female CFLP mice, weighing approx. 25 g, were fasted for 24 hours prior to the study. The compounds under study were administered orally as an aqueous solution to each of 6 mice. 30 Minutes later a blood sample ([…]) was obtained from the tail for the analysis of blood glucose. Immediately after taking the blood sample, glucose (1 g/kg body weight) was administered subcutaneously to each mouse. 6 Mice were given water as a control. Blood samples were then obtained from each mouse at 30 minute intervals for 120 minutes. Compounds that produced a significant (P<0.05) reduction on blood glucose, compared with control mice given water, at any time interval, were considered active. The area under the blood glucose curve over the 2 hour period after the administration of the glucose was calculated for each compound and compared with the value for control animals.

genetically obese mice = assay: Anti-obesity activity: carcass lipid of genetically obese mice after daily oral dosing for 28 days
Experimental: The compounds were administered by oral gavage in water or carboxymethyl-cellulose suspension to genetically obese mice daily for 28 days. At the end of the time the carcass composition was determined.

Male CFLP mice = assay: Platelet aggregation inhibition activity: response of blood platelet concentration to intravenous collagen in mice; details: two hours before intravenous collagen
Experimental: Male CFLP mice (ca 20g, n=11 or 12) were dosed orally with compound or vehicle (controls) after an overnight fast. Two hours later each mouse received an intravenous dose of collagen ([…], pH 6-6.6). Exactly 30 sec. after injection of collagen, each mouse was placed in a chamber of C02 until respiration ceased. […] Each concentration was expressed as a per cent of that obtained in a tail blood sample taken immediately before injection of collagen.

rat ear = assay: Anti-inflammatory activity: croton oil induced inflammation of the rat ear; details: topical in irritant vehicle, ear weight after 6 hours, active = significant (5% level) reduction in ear weight vs non-drug treated control
Experimental: The method used is based on that described by G. Tonelli et al (Endocrinology, 77, 625-634, 1965). An inflammation is induced in the rat ear by the application of 50 µl of a 1% solution of croton oil in tetrahydrofuran, test compounds being dissolved in the irritant vehicle. After 6 hours the inflammation is assessed by killing the animals and weighing the ears. Topical anti-inflammatory activity of a compound is generally considered to be shown when a significant (5% level) reduction in ear weight is seen compared to non-drug treated control.

With `CC(Cc1ccc(CN(C)C)cc1)NCC(O)c1cccc(C(F)(F)F)c1` (stereo not shown) [Example 4, N-(2-(4-N'N'-Dimethylaminomethylphenyl)-1-methylethyl)-2-hydroxy-2-(3-trifluoromethylphenyl) ethanamine] the “REDUCTION IN AREA UNDER BLOOD GLUCOSE CURVE (%)” value (Female CFLP mice; 12.5 µ mol/kg orally) was 31%.
With `CC(Cc1ccc(CN)cc1)NCC(O)c1cccc(Cl)c1` (stereo not shown) [Example 6, N-(2-(4-Aminomethylphenyl}-1-methylethyl)-2-hydroxy-2-(3-chlorophenyl) ethanamine] the “g LIPID/MOUSE TREATED” value (genetically obese mice; 10.9 mg/kg p.o. daily for 28 days, control 18.75) was 17.38 g.
`CNCc1ccc(CC(C)NCC(O)c2cccc(C(F)(F)F)c2)cc1` (stereo not shown) [Example 3, N-(2-(4-N'-Mcthylaminomethylphenyl)-1-methylethyl)-2-hydroxy-2-(3-trifluoromethylphenyl) ethanamine] was tested, and the “g LIPID/MOUSE TREATED” value (genetically obese mice; 12.2 mg/kg p.o. daily for 28 days, control 20.98) was 18.56 g and the “% Inhibition of re-sponse to collagen” value (Male CFLP mice; 10 µmol/kg p.o.) was 25 p<0.02%.
For `CC(Cc1ccc(CN)cc1)NCC(O)c1cccc(C(F)(F)F)c1` (stereo not shown) [Example 2, N-(2-(4-Aminomethylphenyl)-1-methylethyl)-2-hydroxy-2-(3-trifluoromethylphenyl) ethanamine], the “g LIPID/MOUSE TREATED” value (genetically obese mice; 11.8 mg/kg p.o. daily for 28 days, control 25.09) was 20.87 g, the “REDUCTION IN AREA UNDER BLOOD GLUCOSE CURVE (%)” value (Female CFLP mice; 2.5 µ mol/kg orally) was 24% and the ACTIVITY (rat ear; 0.5 mg/rat ear) was “Active”. For the same molecule, the “% Inhibition of re-sponse to collagen” value (Male CFLP mice; 10 µmol/kg p.o.) was 29 p<0.01%.
For `CNCc1ccc(CC(C)NCC(O)c2cccc(Cl)c2)cc1` (stereo not shown) [Example 8, N-(2-(4-N'-Methylaminomethylphenyl)-1-methylethyl)-2-hydroxy-2-(3-chlorophenyl) ethanamine], the “REDUCTION IN AREA UNDER BLOOD GLUCOSE CURVE (%)” value (Female CFLP mice; 12.5 µ mol/kg orally) was 52%, the ACTIVITY (rat ear; 2 mg/rat ear) was “Active” and the “% Inhibition of re-sponse to collagen” value (Male CFLP mice; 10 µmol/kg p.o.) was 37 p<0.001%.
With `CNCCCCCCc1ccc(CC(C)NCC(O)c2cccc(Cl)c2)cc1` (stereo not shown) [Example 26, N-(2-(4-(6-N'-Methylaminohexyl)phenyl)-1-methylethyl)-2-hydroxy-2-(3-chlorophenyl) ethanamine] the “REDUCTION IN AREA UNDER BLOOD GLUCOSE CURVE (%)” value (Female CFLP mice; 2.5 µ mol/kg orally) was 53%.
In the case of `CN[C@H](C)c1ccc(CC(C)NCC(O)c2cccc(Cl)c2)cc1` (stereo partly drawn) [Example 24, N-(2-(4-(1-(R)-N'-Methylaminoethyl)phenyl)-1-methylethyl) -2-hydroxy-2-(3-chlorophenyl)ethanamine], the “REDUCTION IN AREA UNDER BLOOD GLUCOSE CURVE (%)” value (Female CFLP mice; 50 µ mol/kg orally) is reported as 17%.
For `CNCCCCc1ccc(CC(C)NCC(O)c2cccc(Cl)c2)cc1` (stereo not shown) [Example 27, N-(2-(4-(4-N'-Methylaminobutyl)phenyl)-1-methylethyl)-2-hydroxy-2-(3-chlorophenyl) ethanamine], the “REDUCTION IN AREA UNDER BLOOD GLUCOSE CURVE (%)” value (Female CFLP mice; 2.5 µ mol/kg orally) was 10%.
For `CNCCCc1ccc(CC(C)NCC(O)c2cccc(C(F)(F)F)c2)cc1` (stereo not shown) [Example 14, N-(2-(4-(3-N'-Methylaminopropyl)phenyl)-1-methylethyl)-2-hydroxy-2-(3-trifluoromethylphenyl) ethanamine], the “REDUCTION IN AREA UNDER BLOOD GLUCOSE CURVE (%)” value (Female CFLP mice; 12.5 µ mol/kg orally) was 46%.
With `CNCc1ccc(CC(C)NCC(O)c2cccc(F)c2)cc1` (stereo not shown) [Example 9, N-(2-(4-N'-Methylaminomethylphenyl)-1-methylethyl)-2-hydroxy-2-(3-fluorophenyl) ethanamine] the “g LIPID/MOUSE TREATED” value (genetically obese mice; 10.8 mg/kg p.o. daily for 28 days, control 22.95) was 20.63 g.
In the case of `CC(=O)Oc1ccccc1C(=O)O` [Aspirin, reference compound], the “% Inhibition of re-sponse to collagen” value (Male CFLP mice; 600(108) µmol(mg)/kg p.o.) is reported as 29 p<0.05%.
In the case of `CCc1cccc(C(O)CNC(C)Cc2ccc(CNC)cc2)c1` (stereo not shown) [Example 10, N-(2-(4-N'Methylaminomethylphenyl)-1-methylethly)-2-hdroxy-2-(3-ethylphenyl) ethanamine], the “REDUCTION IN AREA UNDER BLOOD GLUCOSE CURVE (%)” value (Female CFLP mice; 100.0 µ mol/kg orally) is reported as 49%.
In the case of `CNCc1ccc(CC(C)NCC(O)c2cccc(Br)c2)cc1` (stereo not shown) [Example 12, N-(2-(4-N'-Methylaminomethylphenyl)-1-methylethyl)-2-hydroxy-2-(3-bromophenyl) ethanamine], the “g LIPID/MOUSE TREATED” value (genetically obese mice; 12.5 mg/kg p.o. daily for 28 days, control 24.60) is reported as 20.38 g and the “REDUCTION IN AREA UNDER BLOOD GLUCOSE CURVE (%)” value (Female CFLP mice; 2.5 µ mol/kg orally) is reported as 37%.
`CNCc1ccc(CC(C)NCC(O)c2ccccc2)cc1` (stereo not shown) [Example 7, N-(2-(4-N'-Methylaminomethylphenyl)-1-methylethyl)-2-hydroxy-2-phenylethanamine] was tested, and the “g LIPID/MOUSE TREATED” value (genetically obese mice; 9.9 mg/kg p.o. daily for 28 days, control 23.13) was 20.56 g.
With `CC(Cc1ccc(CN)cc1)NCC(O)c1ccccc1` (stereo not shown) [Example 1, N-(2-(4-Aminomethylphenyl)-1-methylethyl)-2-hydroxy-2-phenylethanamine] the “g LIPID/MOUSE TREATED” value (genetically obese mice; 6.25 mg/kg p.o. daily for 28 days, control 21.52) was 17.98 g and the “REDUCTION IN AREA UNDER BLOOD GLUCOSE CURVE (%)” value (Female CFLP mice; 2.5 µ mol/kg orally) was 29%.
`CNC(C)Cc1ccc(CC(C)NCC(O)c2cccc(Cl)c2)cc1` (stereo not shown) [Example 25, N-(2-(4-(2-N'-Methylaminopropyl)phenyl)-1-methylethyl) -2-hydroxy-2-(3-chlorophenyl)ethanamine] was tested, and the “REDUCTION IN AREA UNDER BLOOD GLUCOSE CURVE (%)” value (Female CFLP mice; 2.5 µ mol/kg orally) was 41%.
For `CNCc1ccc(C[C@@H](C)NC[C@H](O)c2cccc(C(F)(F)F)c2)cc1` (racemic) [Example 15, (RR,SS) N-(2-(4-N'-Methylaminomethylphenyl)-1-methylethyl)-2-hydroxy-2-(3-trifluoromethylphenyl) ethanamine], the “REDUCTION IN AREA UNDER BLOOD GLUCOSE CURVE (%)” value (Female CFLP mice; 2.5 µ mol/kg orally) was 19%.
In the case of `CN[C@@H](C)c1ccc(CC(C)NCC(O)c2cccc(Cl)c2)cc1` (stereo partly drawn) [Example 23, N-(2-(4-(1-(S)-N'-Methylaminoethyl)phenyl)-1-methylethyl)-2-hydroxy-2-(3-chlorophenyl)ethanamine], the “REDUCTION IN AREA UNDER BLOOD GLUCOSE CURVE (%)” value (Female CFLP mice; 50 µ mol/kg orally) is reported as 26%.
For `CNCc1ccc(C[C@@H](C)NC[C@H](O)c2cccc(Cl)c2)cc1` (racemic) [Example 16, (RR,SS) N-(2-(4-N'-Methylaminomethylphenyl)-1-methylethyl) -2-hydroxy-2-(3-chlorophenyl) ethanamine], the “g LIPID/MOUSE TREATED” value (genetically obese mice; 11.3 mg/kg p.o. daily for 28 days, control 22.55) was 16.03 g and the “REDUCTION IN AREA UNDER BLOOD GLUCOSE CURVE (%)” value (Female CFLP mice; 2.5 µ mol/kg orally) was 33%.
